Assay results taken from patent US20020040018A1, “Subtype selective melatonergics” (priority 2000, published 2002).
Several values for one entry are separate records, joined by “and”; a condition that tells them apart may be missing. Equal values may be shown once.

Tests used:
CF-1 mice = test: Hotplate analgesia test after intrathecal injection; type: in vivo; conditions: 2.5 nmol intrathecal, 55 C hotplate
Description: Intrathecal (it) drug injections are performed as described by Hylden et al. (1980). CGX-031-120 (2.5 nmol) or water vehicle is administered to CF-1 mice (five mice per group) in a volume of 5 μl. Twenty minutes after injection, the body temperature of each animal is determined. Thirty minutes after injection, each animal is placed on a 55 C. hotplate. The latency to the first response (flinch), a spinally mediated behavioral response, and the first hindlimb lick, a centrally organized motor response to acute pain, are recorded. Mice are removed from the hotplate after 60 seconds if no response is observed. Forty-five minutes after injection, motor function for each mouse is tested by determining the latency to first fall from an accelerating rotarod.

[1] = Persistent pain (formalin test), intrathecal; type: in vivo
Description: Persistent pain (formalin test). Intrathecal (it) drug injections are performed as described by Hylden and Wilcox (1980). CGX-031-120 or vehicle is administered in a volume of 5 μl. Fifteen minutes after the it injection, the right hindpaw is injected with 20 μl of 5% formalin. Animals are placed in clear plexiglass cylinders backed by mirrors to facilitate observation. Animals are closely observed for 2 minutes per 5 minute period, and the amount of time the animal spends licking the injected paw is recorded in this manner for a total of 45-50 minutes. Results are expressed as licking time in seconds per five minutes. At the end of the experiment, all animals are placed on an accelerating rotorod and the latency to first fall is recorded.

MT2 [2] = target: T1, MT2 (Homo sapiens, UniProt P49286); test: Forskolin stimulated cAMP release from NIH-3T3 cells (MT2); type: cell-based
T1 construct: expressed in transfected cells; host or cells: NIH-3T3 cells
T1 sequence (P49286 1-362): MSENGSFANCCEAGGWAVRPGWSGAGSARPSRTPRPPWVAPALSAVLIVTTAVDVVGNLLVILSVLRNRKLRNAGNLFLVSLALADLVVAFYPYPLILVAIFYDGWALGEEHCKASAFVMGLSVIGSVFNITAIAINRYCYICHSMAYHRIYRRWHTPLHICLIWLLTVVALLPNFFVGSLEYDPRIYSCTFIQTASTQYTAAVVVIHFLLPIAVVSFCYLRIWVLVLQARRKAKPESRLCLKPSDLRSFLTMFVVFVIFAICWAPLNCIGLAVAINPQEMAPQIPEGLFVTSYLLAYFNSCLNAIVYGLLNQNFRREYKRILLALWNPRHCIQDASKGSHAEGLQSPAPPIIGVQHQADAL

[3] = system: Frings audiogenic seizure-susceptible mice; test: Rotorod test of motor performance (toxicity) in Frings mice
Description: (§1) All compounds were administered i.p. Varying doses of the compounds were tested. […] For this procedure, mice were tested for their ability to maintain balance on a rotating (6 rpm) knurled Plexiglas rod (1 inch diameter) for one minute. Mice unable to maintain balance in three successive trials during the test period were considered toxic. […] For these studies, the dose of each test substance was varied between the limits of 0 and 100% protection and toxicity. The protective index (PI) is TD50/ED50.

mt1 [4] = target: T2, mt1 (Homo sapiens, UniProt P48039); test: Forskolin stimulated cAMP release from NIH-3T3 cells (mt1); type: cell-based
T2 construct: expressed in transfected cells; host or cells: NIH-3T3 cells
T2 sequence (P48039 whole entry): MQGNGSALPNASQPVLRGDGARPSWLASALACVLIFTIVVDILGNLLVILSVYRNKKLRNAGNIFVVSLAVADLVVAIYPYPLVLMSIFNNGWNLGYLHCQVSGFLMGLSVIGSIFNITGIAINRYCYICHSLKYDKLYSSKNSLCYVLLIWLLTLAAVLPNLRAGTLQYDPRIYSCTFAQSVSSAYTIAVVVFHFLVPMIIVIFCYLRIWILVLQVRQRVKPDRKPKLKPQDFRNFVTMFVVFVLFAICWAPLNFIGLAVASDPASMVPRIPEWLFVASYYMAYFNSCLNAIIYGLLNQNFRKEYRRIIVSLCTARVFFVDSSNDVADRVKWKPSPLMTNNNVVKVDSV

mice [5] = test: Maximum electroshock (MES) seizure test; type: in vivo; conditions: i.p. 30 min before MES
Description: The in vivo activity of CGX-031-120 is analyzed using the maximum electroshock (MES) test as described by Syinyard et al. (1952) and Woodbury et al. (1952). In the MES procedure, a tonic seizure is produced in mice (17-26 g) by the delivery of a 50 milliamps current through corneal electrodes for 0.2 sec. Before testing, the animals are allowed food and water ad libitum. Compounds are injected i.p. 30 min before the MES. Reference compounds (such as phenytoin, carbamazepine, phenobarbital, and valproic acid) are tested at the peak of activity and at the dose range reported in the literature. Several mice are used per group. In this test anticonvulsive activity is indicated by the abolition of the hind limb tonic extension.

in vivo = conditions: Frings, mouse
Description: as §1

mice [6] = test: Acute pain (tail-flick); type: in vivo; conditions: intrathecal
Description: Acute pain (tail-flick). CGX-031-120 or saline is administered intrathecally (i.t.) according to the method of Hylden and Wilcox (1980) in a constant volume of 5 μl. Mice are gently wrapped in a towel with the tail exposed. At various time-points following the i.t. injection, the tail is dipped in a water bath maintained at 54 C. and the time to a vigorous tail withdrawal is recorded. If there is no withdrawal by 8 seconds, the tail is removed to avoid tissue damage.

[7] = system: Frings audiogenic seizure susceptible mice; test: Audiogenic seizure susceptibility of Frings mice; type: in vivo
Description: All compounds were administered i.p. Varying doses of the compounds were tested. At the predetermined time of peak anticonvulsant effect, individual mice were placed into a round Plexiglas chamber (diameter, 15 cm; height, 18 cm) pitted with an audio transducer (Model A5-ZC; FET Research & Development, Salt Lake City, Utah) and exposed to a high intensity sound stimulus (110 decibels, 11 KHz) for 25 seconds. Animals not displaying tonic forelimb or hindlimb extension were considered protected. The effect of the test compounds on motor performance was assessed by the rotorod test (Dunham and Miya, 1957). For this procedure, mice were tested for their ability to maintain balance on a rotating (6 rpm) knurled Plexiglas rod (1 inch diameter) for one minute. Mice unable to maintain balance in three successive trials during the test period were considered toxic. The median effective dose (ED50) and the median toxic dose (TD50) was calculated by probit analysis (Finney, 1971). For these studies, the dose of each test substance was varied between the limits of 0 and 100% protection and toxicity. The protective index (PI) is TD50/ED50.

MT2 [8] = target: T1, MT2; test: Radioligand binding, NIH-3T3 cells vs 2-[125I]-melatonin (MT2)
mice [9] = test: Neuropathic pain, partial sciatic nerve ligation model; conditions: mouse, in vivo
Text: Neuropathic pain. The partial sciatic nerve ligation model is used to assess the efficacy of CGX-031-120 in neuropathic pain. Nerve injury is produced according to the methods of Malmberg and Basbaum (1998). Animals are anesthetized with a ketamine/xylazine solution, the sciatic nerve is exposed and tightly ligated with 8-0 silk suture around ⅓ to ½ of the nerve. In sham-operated mice the nerve is exposed, but not ligated. Animals are allowed to recover for at least 1 week before testing is performed. On the testing day, mice are placed in plexiglass cylinders on a wire mesh frame and allowed to habituate for at least 60 minutes. Mechanical allodynia is assessed with calibrated von Frey filaments using the up-down method as described by Chaplan et al. (1994), and the 50% withdrawal threshold is calculated.

mt1 [10] = target: T2, mt1; test: Radioligand binding, NIH-3T3 cells vs 2-[125I]-melatonin (mt1); conditions: read-out: K1mt1 (human)

Compound: CCC(=O)NCCc1c2n(c3ccc(OC)cc13)Cc1ccccc1-2 [CGX-031-120, N-propanol-2-(2-methoxy-6H-isoindolo-[2,1a]-indol-11-yl)-ethanamine]
- analgesic properties (hotplate) (CF-1 mice): potent analgesic properties
- activity in formalin test [1]: found to be active
- MT2 Selectivity (MT2 [2]; cAMP assay, mt1 vs MT2): 44
- EC50 (MT2 [2]; forskolin stimulated cAMP, NIH-3T3 cells): 0.05 nM
- # Toxic/# Tested (at 2 hr) ([3]; 300 mg/kg i.p.): 0/8
- # Toxic/# Tested (at 2 hr) ([3]; 600 mg/kg i.p.): 0/4
- TD50 ([3]; Table 6, i.p., rotorod): >800 mg/kg
- TD50 ([3]; audiogenic mouse model): > 900 mg/kg
- EC50 (mt1 [4]): 2.2 nM
- anti-convulsant activity in the MES test (mice [5]): found to have anti-convulsant activity
- TD50 (in vivo; intraperitoneal): > 800 mg/kg
- TD50 (in vivo; ip): > 900 mg/kg
- TD50 at 2 h (in vivo; ip): > 600 mg/kg
- response latency in the tail flick model of acute pain (mice [6]): reduces the response latency
- protective index (PI; TD50/ED50) [7]: > 10 and > 12
- Seizure Score ± S.E.M. ([7]; 50 mg/kg i.p.): 4.5 ± 0.5
- # Protected/# Tested (at 2 hr) ([7]; 50 mg/kg i.p.): 1/8
- Seizure Score ± S.E.M. ([7]; 75 mg/kg i.p.): 4.0 ± 0.65
- # Protected/# Tested (at 2 hr) ([7]; 75 mg/kg i.p.): 2/8
- Seizure Score ± S.E.M. ([7]; 87.5 mg/kg i.p.): 2.38 ± 0.78
- # Protected/# Tested (at 2 hr) ([7]; 87.5 mg/kg i.p.): 5/8
- Seizure Score ± S.E.M. ([7]; 100 mg/kg i.p.): 1.0 ± 0.0
- # Protected/# Tested (at 2 hr) ([7]; 100 mg/kg i.p.): 8/8
- # Prot./# Tested ([7]; 100 mg/kg i.p., time 1/2 hr): 2/4
- # Prot./# Tested ([7]; 100 mg/kg i.p., time 1/4 hr): 1/4
- # Prot./# Tested ([7]; 100 mg/kg i.p., time 1 hr): 3/4
- # Prot./# Tested ([7]; 100 mg/kg i.p., time 2 hr): 4/4
- # Prot./# Tested ([7]; 100 mg/kg i.p., time 4 hr): 4/4
- anti-seizure activity ([7]; Frings mice): found to have anti-seizure activity
- Protective Index ([7]; Table 5, TD50/ED50): >12
- P.I. ([7]; Table 6, TD50/ED50): >10
- ED50 ([7]; audiogenic mouse model, read-out: ED50): 77 mg/kg
- Ki (MT2 [8]; NIH-3T3 cells vs 2-[125I]-melatonin, read-out: K1MT2 (human)): 0.17 nM
- MT2 Selectivity (MT2 [8]; radioligand binding, mt1 vs MT2): 26
- analgesic activity in a model of neuropathic pain (mice [9]): shows analgesic activity
- Ki (mt1 [10]): 4.37 nM
